One block for each compound: values may come before it. Peptide text beside a SMILES is read from it. * marks the point of attachment. DOTA = O=C(O)CN1CCN(CC(=O)O)CCN(CC(=O)*)CCN(CC(=O)O)CC1
Columns and labels:
[1] = tested on: human colon carcinoma HT-29 cells; test: MTS reduction test (cytotoxicity); conditions: free peptides 1–4 nmol/mL, 48 h, triplicate
Experimental: (§4) The MTS reduction test was used to evaluate the number of metabolically active cells in culture, under various experimental conditions.
(§5) Briefly, cells were cultivated in 96-well plates (3 × 10^4 CRL9855 cells/mL, 10 × 10^4 HT-29 cells/mL and 5 × 10^4 DU-145 cells/mL) in a total volume of 100 μL. Adherent cells were left for 24 h to adhere to the culture well. Thereafter, NPs and peptides were added at various concentrations and cells were cultivated for 48 h. Non-treated cells were considered as control (CTRL). For background assessment culture medium, NPs and peptides were cultivated in absence of cells, considering that NPs might interfere with the spectrophotometric measurement. All samples were cultivated in triplicate. At the end of the incubation time, 20 μL of MTS reagent were added and samples were cultivated for another 1–3 h until the reaction color was developed. The OD at 490 nm was measured in each sample using a Tecan Sunrise ELISA reader with Magellan universal reader control and data analysis software (Tecan Group Ltd., Mannedorf, Switzerland). Final OD in cellular samples was calculated by subtracting the OD of the corresponding background samples.

[2] = tested on: human proliferating CRL9855 monocytes; test: MTS reduction test (cytotoxicity); conditions: free peptides 1–4 nmol/mL, 48 h, triplicate
Experimental: as §4, §5

[3] = tested on: human prostate carcinoma DU-145 cells; test: MTS reduction test (cytotoxicity); conditions: free peptides 1–4 nmol/mL, 48 h, triplicate
Experimental: as §4, §5

[4] = biological target: neurotensin NTRS1, NTRS2 and NTRS3 receptors; set-up: method as in printed for the value; conditions: target receptors as in Table 3 (NTRS1, NTRS2; SR 14294 also NTRS3); not measured in this paper, ref not given; cited from earlier work
[5] = tested on: prostate tumour bearing mice; conditions: 60 min p.i.; cited from earlier work
Experimental: (§1) Several tracers have been developed to target and facilitate the molecular imaging of colon or prostate cancer, such as: ^68Ga-NGR with over 2.7 ± 0.65% ID/g in colon tumour at 30 min p.i., [^18F]FDG with 2.5 ± 0.5% ID/g [^18F]FDG in colon tumours, [^18F]fluorocholine (FCH) with 7.9 ± 5% ID/g at 60 min p.i. in prostate tumour bearing mice. Compared to these, the values obtained for tumour uptake using the four studied nanotracers are between 2.53 ± 0.26% ID/g for ^68Ga-DOTA-NMN-AuNP to 9.82 ± 2.28% ID/g for ^68Ga-DOTA-PEG(4)-BBN(7-14)-AuNP in colon tumours and 2.79 ± 0.4% ...

in vivo [6] = test: in vivo; set-up: species or system mice; conditions: male, NU/J athymic nude, mouse, 3.81 MBq, total radioactivity, Biodistribution
Experimental: (§2) All experiments were conducted according to the guidelines of EU Directive 2010/63 approved by The Romanian National Sanitary Veterinary and Food Safety Authority (NSVFSA, approval no. 442/25.02.2019). Athymic nude male mice (NU/J, 8–10 weeks old) were obtained from The Jackson Laboratory (Bar Harbor, ME, USA). Animals were housed in ventilated cages with a 12-h light-dark cycle and receive food and water ad libitum. Colon/prostate tumours were induced 7–10 days prior the experiments by a subcutaneous injection of 1 × 10^6 HT-29/DU-145 cancer cells. All injected animals were monitored daily until an ideal size of tumour for biodistribution was reached (60–100 mm^3). 3.81 ± 0.51 MBq of ^68Ga-labelled tracers were retro-orbital injected into the ophthalmic venous sinus after intraperitoneal anesthesia with 0.1 mL ketamine/xylazine/acepromazine cocktail: 7.5 mg/mL ketamine (Narkamon Bio, Bioveta, Cluj-Napoca, Romania), 1.5 mg/mL xylazine (Narcoxyl 2, MSD Animal Health, Madison, NJ, USA) and 0.25 mg/mL acepromazine (Sedam, SC Pasteur Filiala Filipesti SRL, Filipestii de Padure, Romania). All animals were sacrificed at 30 min p.i. and the organs were weighted and measured in a dose calibrator (Biodex Medical Systems Inc., Shirley, NY, USA). The biodistribution was calculated as percent of injected dose per gram of organ (% ID/g) ± standard deviation (SD, n = 4 for each injected tracer).
(§3) All the data were expressed as means ± standard deviation (n = 4). Comparison of results among the groups (% ID/g vs. tracers, % ID/g vs. tracers and organs, % ID/g vs. tracers and tumoral cells), was carried out by one-way analysis of variance (ANOVA) and Tukey post-hoc analysis using SPSS v26 (IBM, Armonk, NY, USA) The results were considered significant for a p-value less than 0.05.

in vivo [7] = test: in vivo; set-up: species or system mice; conditions: male, NU/J athymic nude, mouse, 3.81 MBq, total radioactivity, Biodistribution; remark: listed apart in the source
Experimental: as §2, §3

[8] = Dynamic light scattering of peptide-functionalized gold nanoparticles; type: physicochemical; conditions: cold peptide-functionalized AuNPs, 25 °C; for Hydrodynamic Diameter: DLS, Nano ZS, 633 nm, 90°; for Zeta Potential: DLS/zetasizer
Text: The reaction between DOTA-peptides and NHS-activated PEG-AuNPs was monitored by detecting changes in nanoparticles size as a peptide layer is formed around nanoparticles. The initial hydrodynamic diameter of bare PEG-AuNPs was 42.56 nm, and after functionalization increased to approximately 73 nm (Figure 1). The electric potential at the boundary of the double layer (counter ions and Stern layer) of nanoparticles, also known as zeta potential is higher than −44 mV. Thus, the peptide-functionalized nanoparticles have sufficient repulsive force to anticipate a good physical stability.
The size distribution and zeta potential of cold peptide functionalized-gold nanoparticles were measured using a Nano ZS zetasizer system (Malvern Instruments, Malvern, UK). Measurement parameters were as follows: a laser wavelength of 633 nm (He-Ne), measurement angle of 90°, measurement temperature of 25 °C, and refractive index of medium n = 1.330.

colon tumour = conditions: in vivo; cited from earlier work
Experimental: as §1

HT-29 colon cancer cells = test: Uptake and retention, rotating radioimmunoassay (LigandTracer Yellow); type: cell-based, human; conditions: HT-29 cells, 2–3 nmol peptide, real-time signal during incubation
Experimental: The binding kinetic (uptake and retention) of the ^68Ga-labelled peptides and peptide-functionalized gold nanoparticles we investigated using rotating radioimmunoassay. 2–3 nmol of each peptide labelled with ^68Ga was incubated on DU-145 prostate and HT-29 colon cancer cells. After uptake measurement, the radioactive medium was removed and the cells were washed with fresh DMEM-F12 medium. The cell retention is measured after this process, during each rotation of the Petri dish support the detector is measuring only the signal coming from the tracers bound to cells. The results are reported as measured signal during the time of analysis (where t = 0 min is the time of incubation), as illustrated in Figure 3. […]
The retention level is illustrated after the indicator arrows and reflects the percent of activity retained by the cells from the maximum counted during uptake, after hot medium removal and cells washing step. […]
Cells were maintained in culture according to the protocol provided by the depositor. […] Cells at passage 6–9 and were counted before seeding for experimentation by optical microscopy using a Burker-Turk counting chamber, and cell viability was assessed by the trypan blue exclusion test. […]

Compound: CSCC[C@H](NC(=O)[C@H](Cc1ccccc1)NC(=O)[C@H](Cc1c[nH]cn1)NC(=O)CNC(=O)[C@@H](NC(=O)[C@H](C)NC(=O)[C@H](Cc1c[nH]c2ccccc12)NC(=O)[C@H](CC(C)C)NC(=O)[C@H](CC(N)=O)NC(=O)CNC(=O)CN1CCN(CC(=O)O)CCN(CC(=O)O)CCN(CC(=O)O)CC1)[C@@H](C)O)C(N)=O [DOTA-NMB]
Effect on MTS reduction [1]: do not alter MTS reduction
Effect on MTS reduction [2]: do not alter MTS reduction
Effect on MTS reduction [3]: do not alter MTS reduction

Compound: Cc1ccc(S(=O)(=O)Nc2ccc3c(c2)c(C(=O)C(F)(F)F)cn3CC(=O)N[C@@H](CC(C)C)C(=O)O)cc1 [NTRC 824]
Kd [4]: 38 nM

Compound: COc1cccc(OC)c1-c1cc(C(=O)NC2(C(=O)O)C3CC4CC(C3)CC2C4)nn1-c1ccc(C(=O)N(C)CCCN(C)C)cc1C(C)C (centres unmarked) [SR 14294]
Kd [4]: 10 nM

Compound: COc1cccc(OC)c1-c1cc(C(=O)NC2(C(=O)O)C3CC4CC(C3)CC2C4)nn1-c1ccnc2cc(Cl)ccc12 (centres unmarked) [SR 48692]
Kd [4]: 15 nM

Compound: C[N+](C)(CF)CCO [[^18F]fluorocholine (FCH), [^18F]fluorocholine]
Tumour uptake [5]: 7.9 ± 5 % ID/g

tissue uptake at 0.5 h (in vivo [6]; Pancreas): 1.36 ± 0.07 %ID/g
tissue uptake at 0.5 h (in vivo [6]; Tumour (prostate)): 2.54 ± 0.42 %ID/g
tissue uptake at 0.5 h (in vivo [7]; Bone): 0.1 ± 0.07 %ID/g
tissue uptake at 0.5 h (in vivo [7]; Tumour (colon)): 1.73 ± 0.08 %ID/g
Compound: CSCC[C@H](NC(=O)[C@H](Cc1ccccc1)NC(=O)[C@H](Cc1c[nH]cn1)NC(=O)CNC(=O)[C@@H](NC(=O)[C@H](C)NC(=O)[C@H](Cc1c[nH]c2ccccc12)NC(=O)[C@H](CC(C)C)NC(=O)[C@H](CC(N)=O)NC(=O)CNC(=O)CN1CCN(CC(=O)O)CCN(CC(=O)O)CCN(CC(=O)O)CC1)[C@@H](C)O)C(N)=O [^68Ga-DOTA-NMB, metal not drawn]

tissue uptake at 0.5 h (in vivo [6]; Heart): 0.99 ± 0.26 %ID/g
tissue uptake at 0.5 h (in vivo [6]; Kidneys): ~60 %ID/g
tissue uptake at 0.5 h (in vivo [6]; Lungs): 2.37 ± 0.5 %ID/g
tissue uptake at 0.5 h (in vivo [6]; Pancreas): 0.58 ± 0.02 %ID/g
tissue uptake at 0.5 h (in vivo [6]; Tumour (prostate)): 1.77 ± 0.5 %ID/g
tissue uptake at 0.5 h (in vivo [7]; Bone): 0.16 ± 0.02 %ID/g
tissue uptake at 0.5 h (in vivo [7]; Brain): 0.04 ± 0.01 %ID/g
tissue uptake at 0.5 h (in vivo [7]; Heart): 1 ± 0.42 %ID/g
tissue uptake at 0.5 h (in vivo [7]; Kidneys): 21.1 ± 1.97 %ID/g
tissue uptake at 0.5 h (in vivo [7]; Lungs): 2.37 ± 0.77 %ID/g
tissue uptake at 0.5 h (in vivo [7]; Lymph Node): 0.39 ± 0.05 %ID/g
tissue uptake at 0.5 h (in vivo [7]; Spleen): 0.35 ± 0.02 %ID/g
tissue uptake at 0.5 h (in vivo [7]; Tumour (colon)): 2.02 ± 0.02 %ID/g
Compound: CC[C@H](C)[C@H](NC(=O)[C@H](Cc1ccc(O)cc1)NC(=O)[C@@H]1CCCN1C(=O)[C@@H](NC(=O)[C@H](CCCCN)NC(=O)CN1CCN(CC(=O)O)CCN(CC(=O)O)CCN(CC(=O)O)CC1)[C@@H](C)CC)C(=O)N[C@@H](CC(C)C)C(=O)O [^68Ga-DOTA-NMN, metal not drawn] ({DOTA}-KIPYIL-OH; C-terminus assumed)

tissue uptake at 0.5 h (in vivo [6]; Blood): 6.48 ± 1.53 %ID/g
tissue uptake at 0.5 h (in vivo [6]; Kidneys): 18 ± 3.78 %ID/g
tissue uptake at 0.5 h (in vivo [6]; Tumour (prostate)): 3.78 ± 0.27 %ID/g
tissue uptake at 0.5 h (in vivo [7]; Blood): 6.42 ± 0.27 %ID/g
tissue uptake at 0.5 h (in vivo [7]; Bone): 0.75 ± 0.06 %ID/g
tissue uptake at 0.5 h (in vivo [7]; Kidneys): 18.7 ± 0.67 %ID/g
tissue uptake at 0.5 h (in vivo [7]; Lymph Node): 1.1 ± 0.45 %ID/g
tissue uptake at 0.5 h (in vivo [7]; Tumour (colon)): 3.31 ± 0.76 %ID/g
Compound: CSCC[C@H](NC(=O)[C@H](CC(C)C)NC(=O)[C@H](Cc1c[nH]cn1)NC(=O)CNC(=O)[C@@H](NC(=O)[C@H](C)NC(=O)[C@H](Cc1c[nH]c2ccccc12)NC(=O)[C@H](CCC(N)=O)NC(=O)CCOCCOCCOCCOCCNC(=O)CN1CCN(CC(=O)O)CCN(CC(=O)O)CCN(CC(=O)O)CC1)C(C)C)C(N)=O [^68Ga-DOTA-PEG(4)-BBN(7-14), metal not drawn]

Compound: DOTA-NMB-AuNP: cold DOTA-neuromedin B-functionalized gold nanoparticles
Hydrodynamic Diameter [8]: 72.18 nm
Zeta Potential [8]: −47.3 mV

Compound: DOTA-NMN-AuNP: cold DOTA-neuromedin N-functionalized gold nanoparticles
Hydrodynamic Diameter [8]: 73.29 nm
Zeta Potential [8]: −49.6 mV

Compound: DOTA-NT-AuNP: cold DOTA-neurotensin-functionalized gold nanoparticles
Hydrodynamic Diameter [8]: 72.36 nm
Zeta Potential [8]: −44.4 mV

Compound: [^18F]FDG
Tumour uptake (colon tumour): 2.5 ± 0.5 % ID/g

Compound: ^68Ga-DOTA-NMB-AuNP: NHS-activated PEG-gold nanoparticles functionalized with ^68Ga-DOTA-Neuromedin B
Uptake profile (HT-29 colon cancer cells): up and down trend

Compound: ^68Ga-DOTA-NT-AuNP: NHS-activated PEG-gold nanoparticles functionalized with ^68Ga-DOTA-NT
Hydrodynamic Diameter [8]: 72.36 nm

Source: paper PMC7435928, “Preclinical Evaluation of NHS-Activated Gold Nanoparticles Functionalized with Bombesin or Neurotensin-Like Peptides for Targeting Colon and Prostate Tumours” (Molecules, 2020)
